{
  "source": "patent EP2103596A1",
  "about": "“Process for the preparation of N-(phenylethyl) anilines salts and solvates thereof useful as serotonin 5-HT6 antagonists” (priority 2008, dated 2009)",
  "origin": "cited, not measured here",
  "key": {"[1]": {"conditions": "mice, sub-chronic dosing (10 and 30 mg/kg qd, i.p.)"}, "CYP2D6": {"molecular_target": "CYP2D6 (Homo sapiens, UniProt P10635)", "sequence (P10635 whole entry)": "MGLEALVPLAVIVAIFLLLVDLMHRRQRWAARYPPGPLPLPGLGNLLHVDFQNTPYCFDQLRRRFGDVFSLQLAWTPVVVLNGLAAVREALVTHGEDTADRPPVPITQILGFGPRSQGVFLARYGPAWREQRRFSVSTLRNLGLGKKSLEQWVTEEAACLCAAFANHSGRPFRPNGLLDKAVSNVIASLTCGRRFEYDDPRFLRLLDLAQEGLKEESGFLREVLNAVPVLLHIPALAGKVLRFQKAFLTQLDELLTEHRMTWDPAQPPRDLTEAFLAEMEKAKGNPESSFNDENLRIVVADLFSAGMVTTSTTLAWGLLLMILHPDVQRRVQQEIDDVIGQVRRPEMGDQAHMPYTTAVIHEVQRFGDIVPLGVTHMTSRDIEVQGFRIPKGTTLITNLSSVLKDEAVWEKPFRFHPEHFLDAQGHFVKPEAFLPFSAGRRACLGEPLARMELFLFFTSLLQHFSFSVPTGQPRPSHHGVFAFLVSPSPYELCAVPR"}, "[2]": {"conditions": "rats, sub-chronic dosing (10 and 30 mg/kg qd, i.p.)"}, "[3]": {"tested_on": "more than 70 tested receptors", "conditions": "selectivity versus more than 70 tested receptors"}},
  "note": "Like-named read-outs stand apart in the source and are kept apart here.",
  "data": [
    {"smiles": "COc1cc(Cl)cc(C(C)Nc2cc(N3CCNCC3)ccc2S(C)(=O)=O)c1OC.Cl", "note": "(stereo not shown) [Compound A, [1-(5-Chloro-2,3-dimethoxy-phenyl)-ethyl]-(2-methanesulfonyl-5-piperazin-1-yl-phenyl)-amine hydrochloride salt]", "values": [
      {"measurement": "body weight", "setting": "[1]", "result": "significant reduction"},
      {"measurement": "food intake", "setting": "[1]", "result": "significant reduction"},
      {"measurement": "IC50", "setting": "CYP2D6", "result": 7.8, "unit": "µM"},
      {"measurement": "body weight", "setting": "[2]", "result": "significant reduction"},
      {"measurement": "food intake", "setting": "[2]", "result": "significant reduction"},
      {"measurement": "safety margin", "setting": "[3]", "result": "> 100", "unit": "fold"},
      {"measurement": "stability (HLM)", "result": "> 90", "unit": "min"}
    ]}
  ]
}
